Reference: US20220401585A1, “A UROKINASE PLASMINOGEN ACTIVATOR RECEPTOR-TARGETING PEPTIDE” (RIGSHOSPITALET, priority 2019, published 2022)
Values belong to the molecule of their own block, whether it stands above or below them. Primed or numbered codes have the meaning given here. [ ]: non-standard residue; d: D form. Cha = N[C@@H](CC1CCCCC1)C(=O)O; IRDye800CW′ = not defined here; AEEA = NCCOCCOCC(=O)O

How the values were obtained:
uPAR [1] = biological target: T1, uPAR (Homo sapiens, UniProt Q03405); assay: In vivo binding specificity (competitive blocking, scrambled probe); set-up: endogenous in cells; species or system mice; conditions: 3 nmol, 1 h; for signal intensity compared to the active probe: orthotopic GBM
Description: The target specificity to uPAR was evaluated by two different methods: competitive blocking with the uPAR targeting peptide AE120 ((DChaFsrYLWSG)2-βAK) and IRDye800 conjugated to a scrambled peptide, AE354 (IRDye800CW-Glu-Glu-NH—CH2—CH2—O—CH2—CH2—O—CH2—CO—NH—CH2—CH2—O—CH2—CH2—O—CH2—CO-Asp-Cha-Glu-(D)Ser-(D)Arg-Tyr-Leu-Glu-Ser-OH) with similar peptide length as the active peptide. The competitive blocking dose of 1.4-2.8 mg AE120 was injected intraperitoneally 15-30 min prior to intravenous injection of 3 nmol IRDye800CW-AE344 and imaged at 1 h (n=5). The scrambled peptide was administered at 3 nmol and the animals were imaged after 1 h (n=4).
(§1) Images were analyzed and processed in ImageJ 1.52a, NIH, USA. Signal measurements were performed on the raw images generated by the Fluoptics system. Tumor signal was measured as a mean fluorescence intensity of the whole tumor and background signal was measured as the mean of a representative area with no tumor on the contralateral hemisphere. Presented pictures are contrast enhanced in ImageJ with the Contrast Enhancement (Saturated pixels: 0.3%).
Target sequence in this assay (Q03405 23-305): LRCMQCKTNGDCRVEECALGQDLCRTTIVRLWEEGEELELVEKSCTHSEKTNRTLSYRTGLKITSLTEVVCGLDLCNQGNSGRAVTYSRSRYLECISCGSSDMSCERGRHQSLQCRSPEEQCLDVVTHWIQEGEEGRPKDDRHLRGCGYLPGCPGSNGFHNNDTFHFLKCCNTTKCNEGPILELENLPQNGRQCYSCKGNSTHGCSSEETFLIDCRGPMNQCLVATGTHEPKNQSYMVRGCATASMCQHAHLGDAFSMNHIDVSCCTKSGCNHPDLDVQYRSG

uPAR [2] = biological target: T1, uPAR; assay: SPR inhibition of uPAR wt binding to immobilized pro-uPA; conditions: inhibition of uPAR binding to immobilized pro-uPA S356A, 20° C.
Description: Covalent immobilization of purified human prouPA^S356A—was accomplished by injecting 12.5 μg/ml protein dissolved in 10 mM sodium acetate (pH 5.0) over a CM5 chip that had been pre-activated with NHS/EDC (N-ethyl-N′[3-[…])propyl]-carbodiimide), aiming at a surface density of >5000 resonance units (RU) corresponding to 100 fmols/mm^2. After coupling the sensorchip was deactivated with 1 M ethanolamine. Binding of purified human uPAR as analyte was measured from 4 nM to 0.25 nM at 20° C. using 10 mM HEPES, 150 mM NaCl, 3 mM EDTA (pH 7.4) containing 0.05% (v/v) surfactant P20 as running buffer at a flow rate of 50 μl/min. […]
Surface plasmon resonance (SPR) was applied to determine the IC50-value of IRDye800-AE344 on the uPAR·uPA interaction in solution using a Biacore 3000 instrument essentially as described. […] A standard curve was measured in parallel (2-fold dilution of uPAR covering 0.06 nM to 2 nM) including one repeated concentration point at the end to validate the biological integrity of the sensor chip. […] The parent nonamer peptide antagonist AE105 (Asp-Cha-Phe-D-Ser-D-Arg-Tyr-Leu-Trp-Ser-OH) was analyzed in parallel as positive control and the closed uPAR^H47C-N259C was used as negative control as its uPA binding cavity cannot accommodate AE105.
Target sequence in this assay (Q03405 23-305 limits assumed): as the sequence (Q03405 23-305) above

[3] = Photostability under continuous laser exposure; format: physicochemical
Description: The photostability was evaluated by a factor 2 dilution series with four samples from 0.23-1.8 nM IRDye800-AE344 in 100 μL phosphate buffered saline (PBS) placed in a black 96-well plate. The well was placed in a black box with the Fluobeam mounted in the top at a distance of 23 cm from the well plate. Image acquisition was performed at 0 min, 10 min, 15 min, 20 min, 0.5 h, 1 h, 2 h, 3 h, 6 h, 10 h, 15 h, 24 h. Each dilution sample was normalized to time point 0 and the data from all four samples were pooled.

[4] = system: orthotopic GBM (U-87 MG-luc2 xenograft); assay: NIR fluorescence imaging of orthotopic GBM (dynamic imaging, TBR and MFI); format: in vivo, mice
Description: All experimental procedures in animals were carried out in accordance with the approval by The Animal Experiments Inspectorate, Denmark. 7-10-week-old female nude mice (strain: Rj:NMRI-Foxn1nu/nu, JANVIER LABS, France) were orthotopically xenografted with U-87 MG-luc2 cells. Prior to any surgical procedure, the animals were anesthetized with Hypnorm (0.315 mg/ml fentanyl, 10 mg/ml fluanisone)+Midazolam (5 mg/ml)+sterile water in the ratio 1:1:2 by subcutaneous injection of 0.01 ml/g body weight of the solution.
The orthotopic GBM tumor model was established by inoculation of 500.000 cells in 10 μL ice cold PBS in the right hemisphere (1.5 mm lateral and 0.5 mm posterior to the bregma at 2 mm depth) using a stereotaxic frame (KOPF INSTRUMENTS, Tujunga, Calif., USA) with the automated microinjection pump UMP3 (WPI, Sarasota, Fla., USA). The cells were injected over 5 min with the syringe kept in place for further 3 min before retraction. Tumor growth was subsequently monitored on MRI with the BioSpec 7T (Bruker, Billerica, Mass., USA) with axial and coronal T2-weighted sequences. When the tumor size reached 2-17 mm^3, the animals were included in the fluorescence imaging protocol.
All image acquisition was performed with the Fluobeam system with (Fluosoft version: 2.2.1) (Fluoptics, Grenoble, France). To characterize the in vivo biodistribution and tumor imaging properties, IRDye800-AE344 was administered through tail vein injection into all the GBM bearing mice (n=35) at four different doses: 1 nmol, 3 nmol, 6 nmol, and 12 nmol. Two mice were sacrificed for each time point and the brain was removed and cross sectioned through the tumor for imaging. […] Accordingly, image acquisition was performed at following time points after injection:
1 nmol: 0.5 h, 1 h, and 2 h
3 nmol: 1 h, 2 h, 3 h, and 5 h
6 nmol: 1 h, 3 h, 6 h, and 12 h
as §1
Pathological assessment was used to evaluate the colocalization of the fluorescence signal and cancer cells (sens+spec). The cross sectioned brain specimens from the fluorescence imaging were either paraffin embedded for H&E and IHC staining, or cryostat sectioned for fluorescence microscopy. […]
Cryostat sectioning was performed by fixation of the specimen in Tissue-Tek O.C.T. on dry ice. The fixed tissue was sliced axially and mounted on slides for immediate fluorescence imaging.

orthotopic GBM = assay: Fluorescence-guided resection; format: in vivo, mouse; conditions: 6 nmol at 3 h, EleVision IR system
Description: Preoperatively, the tumor was visible on WL and NIR images (FIG. 15 upper panel). The surgeon performed the resection only assisted by WL until the surgeon considered all tumor tissues was removed. […] A video of fluorescence-guided surgery is also available in the online supplementary materials.
As should be understood from above, in FIG. 15 there is shown fluorescence-guided surgery (6 nmol IRDye800CW-AE344 at 3 h) performed with the EleVision™ IR system. Upper panel: Images were acquired prior to surgery. Middle panel: Pictures were acquired following surgery in white light and clearly visualizes remaining tumor tissue. The signal is more intense compared to upper panel and is due to the fact that the remaining tumor is now more exposed.

[5] = Acute toxicity, liver and kidney histology; set-up: species or system mice; conditions: mouse, in vivo
Text: Liver and kidneys: Tissue was formalin fixed and paraffin embedded. Sections of 2-4 um thick were cut and a routine staining panel applied including: H&E, modified sirius, PAS and Masson trichome for both and additional PAS with silver for kidneys and PAS with diastase, iron, reticulin artisan and oxidised orcein for the livers. Livers were immunohistochemically stained, immunohistochemical evaluation on 3 μm thick sections was done using the CK7 antibody from Dako/Agilent, GA619 (clone OV-TL12/30) following the manufacturer's instructions. The staining took place on the Omnis from Agilent utilizing the EnVision Flex+ detection kit (GV800). The primary antibody was diluted using Antibody Diluent (Dako DM830) and were incubated for 20 minutes. The sections were counterstained with hematoxylin.

Molecule: IRDye800CW-Glu-Glu-NH—CH2—CH2—O—CH2—CH2—O—CH2—CO—NH—CH2—CH2—O—CH2—CH2—O—CH2—CO-Asp-Cha-Glu-(D)Ser-(D)Arg-Tyr-Leu-Glu-Ser-OH ({IRDye800CW′}-EE[AEEA][AEEA]D[Cha]E[dS][dR]YLES-OH) [IRDye800CW-AE354, reference compound]
normalized TBR values (FIG. 16C) (uPAR [1]; probe alone): 3.4
signal intensity compared to the active probe (uPAR [1]; probe alone): lower signal intensity

IC50 (uPAR [2]): 5.7 ± 0.5 nM
Molecule: EE-O2Oc-O2Oc-DChaFsrYLWS-NH2 [AE347]

Molecule: CC(C)C[C@H](NC(=O)[C@H](Cc1ccc(O)cc1)NC(=O)[C@@H](CCCNC(=N)N)NC(=O)[C@@H](CO)NC(=O)[C@H](Cc1ccccc1)NC(=O)[C@H](CC1CCCCC1)NC(=O)[C@H](CC(=O)O)NC(=O)COCCOCCNC(=O)COCCOCCNC(=O)[C@H](CCC(=O)O)NC(=O)[C@H](CCC(=O)O)NC(=O)CCCCC[N+]1=C(/C=C/C2=C(Oc3ccc(S(=O)(=O)O)cc3)C(=C/C=C3/N(CCCCS(=O)(=O)[O-])c4ccc(S(=O)(=O)O)cc4C3(C)C)/CCC2)C(C)(C)c2cc(S(=O)(=O)O)ccc21)C(=O)N[C@@H](Cc1c[nH]c2ccccc12)C(=O)N[C@@H](CO)C(=O)O [IRDye800CW-AE344, IRDye800CW-Glu-Glu-O2Oc-O2Oc-Asp-Cha-Phe-D-Ser-D-Arg-Tyr-Leu-Trp-Ser-OH]
preserved fluorescence intensity ([3]; after continuous laser exposure for 1 h): 84%
preserved fluorescence intensity ([3]; after continuous laser exposure for 2 h): 62%
background MFI ([4]; 6 nmol, 1 h): 24 a.u.
background MFI ([4]; 6 nmol, 3 h): 11 a.u.
decrease in background MFI ([4]; 6 nmol, from 1 h to 3 h): 54%
visualization of orthotopic GBM through intact brain on NIR imaging ([4]; in vivo cancer imaging): clearly visualized
outcome of fluorescence-guided surgery (orthotopic GBM): complete tumor resection
pathological assessment of the kidneys and the liver [5]: no pathological findings
normalized TBR (ref: active probe) (uPAR [1]; blocked with AE120): 0.70
tumor-to-background ratio (TBR) (uPAR [1]; blocked with AE120): 4.6
normalized TBR (ref: active probe) (uPAR [1]; probe alone): 1.00
tumor-to-background ratio (TBR) (uPAR [1]; probe alone): 6.6
signal intensity compared to the active probe (uPAR [1]; competitive blocking with AE120): lower signal intensity
